Test results taken from US20130210039A1, “BLOOD INSULIN RESISTANCE AND DIABETES MARKER PROGRANULIN, METHOD FOR ANALYZING CONCENTRATION OF PROGRANULIN IN BLOOD SAMPLE, AND METHOD FOR SCREENING FOR SUBSTANCE THAT IMPROVES INSULIN RESISTANCE AND IMPROVES OR SUPPRESSES DIABETES” (priority 2010, published 2013).

Tests used:
[1] = system: cultured adipocytes; conditions: cultured adipocytes treated with the substance alone; cited from earlier work
[2] = system: progranulin (PGRN); assay: Serum progranulin concentration in ob/ob mice orally administered pioglitazone (ELISA); format: in vivo; conditions: ten-week-old ob/ob mice, 30 mg/kg orally every day for 1 week; mean±S.D., n=5; p<0.05 vs Vehicle (2.57±0.28)
Protocol: Blood samples were collected from seven-week-old ob/ob mice and ob/+ mice, allowed to stand at room temperature, and centrifuged to prepare serum samples. Serum progranulin concentrations were measured by ELISA.
(§1) Ten-week-old ob/ob mice were orally administered with 30 mg/kg of a thiazolidine derivative (pioglitazone) every day for 1 week. An oral glucose tolerance test (OGTT) was performed on these mice and a control group (Vehicle) administered with only a solvent (10% (w/v) carboxymethyl cellulose).
In FIG. 9, the horizontal axis represents the type of group to be measured (pioglitazone administration group (Pio), control group (Vehicle), and ob/+ mice) and the vertical axis represents the serum progranulin concentration (Serum PGRN conc.) (μg/mL).

[3] = system: progranulin (PGRN) mRNA; assay: Progranulin mRNA expression in adipose tissues of ob/ob mice orally administered pioglitazone; format: in vivo; conditions: ten-week-old ob/ob mice, 30 mg/kg orally every day for 1 week, mean±S.D.
Protocol: Adipose tissues (mesenteric fat tissue (MF), epididymal fat tissue (EF), and subcutaneous adipose tissue (SC)) were extracted from seven-week-old ob/ob mice and ob/+ mice and subjected to real-time PCR analysis to determine the expression levels of mRNA for progranulin (PGRN).
as §1
In FIG. 8, the horizontal axis represents the type of adipose tissue (epididymal fat tissue (EF), mesenteric fat tissue (MF), subcutaneous adipose tissue (SC) (white adipose tissue (WAT) and brown adipose tissue (BAT)), the vertical axis represents the relative expression level of progranulin mRNA (relative PRGN mRNA expression), “Vehicle” represents the control group, and “Pio” represents the pioglitazone administration group.

[4] = system: Akt protein; conditions: cultured adipose cells treated with progranulin protein, under insulin stimulation; cited from earlier work

TNF-α
expression level of progranulin [1]: increased

CCc1ccc(CCOc2ccc(CC3SC(=O)NC3=O)cc2)nc1 (stereo not drawn) [pioglitazone]
serum progranulin concentration [2]: 1.86 ± 0.10 µg/mL
expression level of mRNA for progranulin in mesenteric fat tissue (MF) ([3]; p<0.01 vs Vehicle): 0.42±0.11 times that of the control group
expression level of mRNA for progranulin in epididymal fat tissue (EF) ([3]; p<0.05 vs Vehicle): 0.74±0.06 times that of the control group
expression level of mRNA for progranulin in subcutaneous adipose tissue (SC) (white adipose tissue (WAT)) ([3]; p<0.05 vs Vehicle): 0.61±0.07 times that of the control group

B1: progranulin protein: granulin precursor protein having seven kinds of granulin domains; insulin resistance marker (protein)
chain: MWTLVSWVALTAGLVAGTRCPDGQFCPVACCLDPGGASYSCCRPLLDKWPTTLSRHLGGPCQVDAHCSAGHSCIFTVSGTSSCCPFPEAVACGDGHHCCPRGFHCSADGRSCFQRSGNNSVGAIQCPDSQFECPDFSTCCVMVDGSWGCCPMPQASCCEDRVHCCPHGAFCDLVHTRCITPTGTHPLAKKLPAQRTNRAVALSSSVMCPDARSRCPDGSTCCELPSGKYGCCPMPNATCCSDHLHCCPQDTVCDLIQSKCLSKENATTDLLTKLPAHTVGDVKCDMEVSCPDGYTCCRLQSGAWGCCPFTQAVCCEDHIHCCPAGFTCDTQKGTCEQGPHQVPWMEKAPAHLSLPDPQALKRDVPCDNVSSCPSSDTCCQLTSGEWGCCPIPEAVCCSDHQHCCPQGYTCVAEGQCQRGSEIVAGLEKMPARRASLSHPRDIGCDQHTSCPVGQTCCPSLGGSWACCQLPHAVCCEDRQHCCPAGYTCNVKARSCEKEVVSAQPATFLARSPHVGVKDVECGEGHFCHDNQTCCRDNRQGWACCPYRQGVCCADRRHCCPAGFRCAARGTKCLRREAPRWDAPLRDPALRQLL
modifications: human
notes: granulin precursor protein having seven kinds of granulin domains; insulin resistance marker
activity of Akt protein activated downstream of an insulin receptor [4]: significantly suppressed
